Results as given in patent publication US4151283A, “6-Methyl-and 1,6-dimethyl-8β-carbobenzyloxy-aminomethyl-10α-ergoline as inhibitors of prolactin secretion” (Societa' Farmaceutici Italia S.p.A., priority 1977, dated 1979).

How the values were obtained:
[1] = Emetic activity in dogs; type: in vivo, dog (male beagle); conditions: dog, in vivo, methane-sulphonic salt, approximate (.congruent.), read-out: ED50, emetic activity; for TD50 at 2 h: iv, observed 2 hours; for TD50 at 6 h: po, observed 6 hours
Protocol: (§1) The emetic activity of the compounds was examined by intravenous and oral administration to male beagle dogs weighing 15-20 kg. The compounds were administered as the methane-sulphonic salts. […] Five to six animals per dose were employed for the ED50 evaluation.

[2] = test system: emesis; assay: Emetic activity in dogs; type: in vivo, dog (male beagle); conditions: dogs, both routes of administration (Table III), in words
Protocol: as §1

[3] = test system: lactation; assay: Lactation inhibition in rats (anti-lactation activity); type: in vivo; conditions: Rattus norvegicus, po, methane-sulfonic salt, 6th and 7th days, approximate (.congruent.); read-out: ED50, lactation inhibition (50% reduction of gain in weight of the litters)
Protocol: Adult pregnant female rats were individually caged about 6 days before parturition. The day after parturition (day 1), the number of pups was adjusted to eight. The gain in weight of the litters was measured daily.
The test compounds as methane-sulfonic salts were administered orally to groups of eight mother rats on the 6th and 7th days immediately after the weighing of the litters. The control mothers were treated with the vehicle alone.
The percentage of lactation inhibition was calculated from the mean gain in weight of the litters on the 7th and 8th days in comparison with the results for the 5th and 6th days.
No lactation inhibition was present on the 7th and 8th days in the vehicle-treated (control) group.
The doses capable of reducing to 50% the gain in weight of the litters (ED50) are reported below in Table II.

[4] = test system: nidation (implantation sites); assay: Nidation inhibition in rats (anti-nidation activity); type: in vivo, rat (Sprague-Dowley strain); conditions: Rattus norvegicus, methane-sulphonic salt, given on 3rd day, approximate (.congruent.)
Protocol: Adult female rats, of the Sprague-Dowley strain, in proestrus were mated with fertile males and their vaginal smears were examined the next morning.
The presence of spermatozoa was considered evidence of impregnation and onset of pregnancy (day 1).
The compounds were administered orally or intraperitoneally as methane-sulphonic salts to groups of six to eight rats on the 3rd day.
On the 14th day the animals were sacrificed and the uterus was examined for the presence of implantation sites.
The absence of implantation sites was the criterion of activity.
Several doses were tested for the ED50 evaluation.

[5] = test system: prolactin (PRL) release; conditions: cited from earlier work
[6] = test system: prolactin; conditions: literature (Brooks and Welsch 1974), in words; cited from earlier work
[7] = test system: lactation; conditions: in rats, literature (Fluckiger and Wagner 1968), in words; cited from earlier work
[8] = test system: nidation (implantation sites); conditions: in rats, literature (Fluckiger and Wagner 1968), in words; cited from earlier work
[9] = test system: puerperal lactation; conditions: comparison drug, no own test described; cited from earlier work
[10] = test system: puerperal lactation; assay: Inhibition of puerperal lactation in women (clinical evaluation); type: in vivo, human (puerperal women)
Protocol: The invention concerns a novel method of inhibiting lactation in puerperal women by administering metergoline.
Metergoline was administered at a dose of 8 mg/day (4 mg at 0.800 and 4 mg at 2000) to these women: 10 women were treated with a placebo.

[11] = test system: prolactin (PRL) release; conditions: cited from earlier work; remark: listed apart in the source

## CN1C[C@H](CNC(=O)OCc2ccccc2)C[C@@H]2c3cccc4[nH]cc(c34)C[C@H]21 [1-Demethyl-metergoline, 6-Methyl-8β-carbobenzyloxy-aminomethyl-10α-ergoline]
[1]
  TD50 at 2 h: 0.05 to 0.1 mg/kg
  TD50 at 6 h: 0.2 to 0.4 mg/kg
[2]
  emetic tolerability versus reference standard III: clearly better tolerated than the reference standard III
[3]
  ED50: 4 to 8 mg/kg
[4]; po
  ED50: 4 to 8 mg/kg

## N[C@@H](Cc1c[nH]c2ccc(O)cc12)C(=O)O [5 hydroxytryptophan]
[5]
  effect on PRL release in man: stimulates PRL release

## CC(C)C[C@H]1C(=O)N2CCC[C@H]2[C@]2(O)O[C@](NC(=O)[C@@H]3C=C4c5cccc6[nH]c(Br)c(c56)C[C@H]4N(C)C3)(C(C)C)C(=O)N12 [Bromocriptine, 2-Br-α-ergocriptine, reference compound]
[6]
  anti-prolactin activity: anti-prolactin activity
[1]
  TD50 at 2 h: ~0.007 mg/kg
  TD50 at 6 h: < 0.03 mg/kg
[3]
  ED50: 8 to 16 mg/kg
[7]
  anti-lactation activity: well known both for its anti-nidation and anti-lactation activity in rats
[4]; ip
  ED50: 16 to 32 mg/kg
[4]; po
  ED50: 8 to 16 mg/kg
[8]
  anti-nidation activity: well known both for its anti-nidation and anti-lactation activity in rats
[9]
  treatment period required: 14 days

## CN1C[C@H](CNC(=O)OCc2ccccc2)C[C@@H]2c3cccc4c3c(cn4C)C[C@H]21 [Metergoline, 1,6-Dimethyl-8β-carbobenzyloxy-aminomethyl-10α-ergoline]
[1]
  TD50 at 2 h: > 8 mg/kg
  TD50 at 6 h: 4 to 8 mg/kg
[2]
  emetic tolerability versus reference standard III: clearly better tolerated than the reference standard III
[3]
  ED50: 12.5 to 25 mg/kg
[4]; ip
  ED50: 16 to 32 mg/kg
[4]; po
  ED50: ~25 mg/kg
[10]; 8 mg/day (4 mg twice), 5 days
  women in whom five days of treatment prevented or suppressed lactation: 69 women
[10]; 8 mg/day, second course of 5 additional days
  remaining women in whom a second course definitely inhibited every sign of mammary activity: 9 women
[10]; 5 days of treatment
  cases in which the necessary treatment period is 5 days: 88.5%
[10]; in 88.5% of cases
  treatment period necessary: 5 days
[10]; women, 8 mg/day, in words
  tolerability / side-effects: perfectly tolerated and devoid of any side-effect

## CC[C@@H](CO)NC(=O)[C@@H]1C=C2c3cccc4c3c(cn4C)C[C@H]2N(C)C1 [methysergide]
[5]; in man
  effect on 5-hydroxytryptophan-stimulated PRL release: partially inhibited

## NCCc1c[nH]c2ccc(O)cc12 [serotonin (5HT), 5-hydroxytryptamine]
[11]
  effect on PRL release in animals: stimulates prolactin (PRL) release
